Experimental data as given in US6521633B2, “Treating NIDDM with RXR agonists” (Ligand Pharmaceuticals Incorporated, priority 1995, dated 2003).

Columns and labels:
[1] = system: C3H/10T1/2 cells; test: Oil red O staining of C3H/10T1/2 cells; assay type: cell-based, mouse; conditions: for Experiment B (+BRL + Insulin) % differentiated cells / Experiment A (+BRL) % differentiated cells: 7 days; for effect on differentiation induced by BRL 49653 or BRL/insulin: in combination with BRL 49653
[2] = system: 3T3-LI cells; test: Oil red O staining of differentiating 3T3-LI adipocytes; assay type: cell-based, mouse; conditions: for Percent of Differentiated Cells: 3T3-L1, BRL 49653 and LG 100268 at 1 μM; for Percent of Differentiated Cells / cells induced to differentiate into adipocytes: insulin at 0.01 mg/ml; for cells induced to differentiate into adipocytes: BRL 49653 and retinoid at 1 μM
Source text: They are contact inhibited and can be induced to differentiate into adipocyte cells containing large lipid droplets within the cytoplasm. Adipocyte differentiation can be observed by oil red O staining which stains the lipid droplets within the cytoplasm red. The extent of adipocyte differentiation can then be monitored by microscope observation.

[3] = system: 3T3-L1 cells; test: Insulin stimulated labeled 2-deoxyglucose uptake assay; assay type: cell-based, mouse; conditions: 3T3-L1 treated 10 days; BRL 49653 or LG 100268 (1 μM); insulin 0.01 mg/ml for 5 days; normalized to total cellular protein
Experimental: A fourth indicator for the utility of a compound in treating NIDDM or insulin-resistant diabetes is the compound's, ability to enhance insulin-stimulated glucose uptake. Labeled 2-deoxyglucose (2-DOG, a glucose analog) assay was performed with a preadipocyte cell line in the presence of insulin and a candidate compound to measure the level of 2-DOG incorporation.
A murine preadipocyte cell line, 3T3-L1, is widely used to study glucose uptake, adipogenesis, and has been used in the characterization of thiazolidinediones and other PPARγ activators.
Insulin was added to the cells at a concentration of 0.01 mg/ml for 5 days, thereafter no insulin was added. […] The level of incorporated labeled 2-DOG was normalized to the amount of total cellular protein.

[4] = system: 3T3-LI cells; test: 96-well plate triglyceride accumulation assay in differentiating adipocytes; assay type: cell-based, mouse; conditions: for triglyceride accumulation: retinoids and BRL 49653 at 1 μM, insulin at 0.01 mg/ml, alone or all together; for triglyceride accumulation on addition of retinoid with BRL 49653: retinoid 1 μM with BRL 49653 1 μM
Source text: For a more quantitative assay and rapid screening of compounds, a 96-well plate assay was developed to quantitate the amount of triglyceride produced by the differentiating adipocytes. […] The level of triglyceride accumulation can then be measured via an enzymatic color reaction which can be read in a plate reader. The retinoid modulation of lipid formation was quantitated by monitoring triglyceride formation.

[5] = system: db/db mice; test: In vivo experiment with db/db mice; conditions: for increase of HDL-cholesterol levels in comparison to controls: BRL 49653, or combination, terminal serum, precipitation method; for lowering of the level of glucose in comparison to control: BRL 49653 1 mg/kg, LG 100268 20 mg/kg, or combination
Experimental: Animals: Strain Diabetic C57BLKS/Jm+/+db, 82 mice
Mice were identified by an ear punch code (#1-82) and separated into 8 groups (A-H). Each group consisted of 10 mice separated into 4 cages with 2-3 mice/cage. […] Control group C consisted of 12 mice. […] Food and water were provided ad libitum. Food intake/cage was measured over selected periods and expressed as g food consumed/100 g mouse/day.
(§1) On days of study, food was removed from the cages at selected intervals of time between 6:15 and 7:00 AM. Animal weights were recorded 2 h after start of fast and blood samples taken after a 3 h fast. Blood was drawn from a cut at the tip of the tail and collected into a heparinized capillary tube (approx. 75 μl volume). After centrifugation, the hematocrit was read in a microcapillary reader, recorded and the tube broken for recovery of plasma for analysis of glucose, triglyceride and insulin concentration.
Blood samples were collected on days 0−1,0, 3, 7, 10, and on the final day of study, days 13-15. […] The various solutions were gavaged daily to their respective groups based on the animals weight taken that morning or the weight of the animal taken on the preceding day of weighing. To assess alterations in plasma FFA, on day 10 an addition 75 μl blood sample was collected into an EDTA-coated capillary tube immediately after collecting the basal heparinized capillary tube sample.
On the final day of study, mice were not gavaged with test solution. The last gavage was administered on the day preceding the final day, i.e., day 12 for animals terminated on day 13, day 13 for animals terminated on day 14 and day 14 for animals terminated on day 15. Terminal blood was collected by decapitation to provide serum for assessment of HDL.

[6] = system: ob/ob mice; test: In vivo experiment with ob/ob mice; conditions: mouse
Experimental: Each group consisting of 10 mice.
as §1
Blood samples were collected on days 0−3, 0, 3, 6, 8, 10, 14±1 and final collections were made on days 15, 16 or 17. FFA samples were collected on day 10 by drawing a second 75 μl blood sample in a non-heparinized tube coated with EDTA. This tube was collected immediately after the heparinized tube collection.
Animals in groups H were administered control gavage solution (0.6 ml/42 g) daily commencing on day 0 and ending on the day preceding the final day. 11 test solutions were administered to animals in groups designated A-G, I-L. All gavage solutions were administered after refeeding on days in which mice were fasted for blood sampling.

[7] = system: LPL (lipoprotein lipase) mRNA and PPARγ mRNA; test: Northern blot analysis of adipocyte specific genes in 3T3-LI cells; assay type: cell-based, mouse; conditions: 3T3-LI treated for 7 days; BRL 49653 1 μM, LG 100268 1 μM, insulin 0.01 mg/ml
Experimental: A third measure of adipocyte differentiation is to examine regulation of gene expression. […] Northern blot analysis was used to dissect the molecular aspects of how retinoids effect target genes of differentiating adipocytes. PPARγ, lipoprotein lipase (LPL), and β-actin (loading control) mRNA levels were monitored after cells were treated with thiazolidinediones and retinoids.
Adipocyte specific genes were monitored via northern blot analysis.

[8] = BRL 0.1 μM + insulin 0.01 mg/ml, alone or plus ALRT 1057 1 μM or LGD 1069 1 μM
[9] = BRL 0.1 μM alone or plus ALRT 1057 1 μM, LGD 1069 1 μM or TTNPB 10 nM
[10] = BRL 10 μM + insulin 0.01 mg/ml, alone or plus ALRT 1057 1 μM, LGD 1069 1 μM or TTNPB 10 nM
[11] = BRL 10 μM alone or plus ALRT 1057 1 μM, LGD 1069 1 μM or TTNPB 10 nM
[12] = middle group r17-r20, headed BRL (0.1 μM), + insulin 0.01 mg/ml, alone or plus ALRT 1057 1 μM, LGD 1069 1 μM or TTNPB 10 nM
[13] = middle group r17-r20, headed BRL (0.1 μM), alone or plus ALRT 1057 1 μM, LGD 1069 1 μM or TTNPB 10 nM

Row | Compound | Experiment B (+BRL + Insulin) % differentiated cells [1, 8] [%] | Experiment A (+BRL) % differentiated cells [1, 9] [%] | Experiment B (+BRL + Insulin) % differentiated cells [1, 10] [%] | Experiment A (+BRL) % differentiated cells [1, 11] [%] | effect on differentiation induced by BRL 49653 or BRL/insulin [1] | Experiment B (+BRL + Insulin) % differentiated cells [1, 12] [%] | Experiment A (+BRL) % differentiated cells [1, 13] [%] | amount of adipocyte differentiation when used in combination with BRL 49653 ([2]; 3T3-LI) | increase in 2-DOG uptake [3] | triglyceride accumulation [4] | Percent of Differentiated Cells [2] [%] | cells induced to differentiate into adipocytes ([2]; 3T3-LI) [%] | increase of HDL-cholesterol levels in comparison to controls ([5]; LG 100268 20 mg/kg) | lowering of the level of glucose in comparison to control ([5]; daily gavage, by day 15) [%] | triglyceride accumulation on addition of retinoid with BRL 49653 [4] | lowering of the level of glucose in comparison to control [6] [%] | lipid droplets within the cytoplasm ([2]; 3T3-LI, LG 100268 at 1 μM) | lowering of the level of triglycerides ([5]; daily gavage, LG 100268 20 mg/kg, BRL 49653 1 mg/kg, or combination, by day 15) [%] | LPL and PPARγ mRNA levels, relative signal normalized to β-actin [7]
1 | CC1=C(/C=C/C(C)=C\C=C\C(C)=C\C(=O)O)C(C)(C)CCC1 [ALRT 1057, 9-cis retinoic acid] | 65 | 45 | 99 | 80 | large increase in the amount of differentiation | 90 | 65 | increased the amount of differentiation | – | – | – | – | – | – | – | – | – | – | –
2 | CN(CCOc1ccc(CC2SC(=O)NC2=O)cc1)c1ccccn1 (stereo not shown) [BRL 49653, 5-[[4-[2-(methyl-2-pyridinylamino)ethoxy]phenyl]methyl]-2,4-thiazolidinedione, reference compound] | – | – | – | – | – | – | – | – | About 5 fold | induced some triglyceride accumulation | 50 | 50 | equivalent level of increase | 40 | – | – | – | – | –
3 | Cc1cc2c(cc1C1(c3ccc(C(=O)O)cn3)CC1)C(C)(C)CCC2(C)C [LG 100268, 2-[1-(3,5,5,8,8-pentamethyl-5,6,7,8-tetrahydro-2-naphthyl)-cyclopropyl]-pyridine-5-carboxylic acid] | – | – | – | – | – | – | – | increased dramatically | About 2 fold | largest response | 50 | 50 | 20% | 40 | increased the amount of triglyceride accumulation | ~50 | bigger redder lipid droplets | 46 | –
4 | C=C(c1ccc(C(=O)O)cc1)c1cc2c(cc1C)C(C)(C)CCC2(C)C [LGD 1069] | 90 | 45 | 99 | 80 | large increase in the amount of differentiation | 90 | 65 | increased the amount of differentiation | – | – | – | – | – | – | increased the amount of triglyceride accumulation | – | – | – | –
5 | C/C(=C\c1ccc(C(=O)O)cc1)c1ccc2c(c1)C(C)(C)CCC2(C)C [TTNPB, reference compound] | – | 0.2 | 50 | 5 | inhibited the differentiation | 30 | 2 | – | – | – | – | – | – | – | – | – | – | – | –
6 | Insulin: insulin, used at 0.01 mg/ml | – | – | – | – | – | – | – | – | – | induced some triglyceride accumulation | 20 | – | – | – | – | – | – | – | three to five fold increase
